Measured values reported in patent US9957271B2, “Substituted bicyclic aza-heterocycles and analogues as sirtuin modulators” (GlaxoSmithKline, LLC, priority 2012, dated 2018).

Biological target: T1, SIRT1 (Homo sapiens, UniProt Q96EB6)
T1 sequence (Q96EB6 1-747): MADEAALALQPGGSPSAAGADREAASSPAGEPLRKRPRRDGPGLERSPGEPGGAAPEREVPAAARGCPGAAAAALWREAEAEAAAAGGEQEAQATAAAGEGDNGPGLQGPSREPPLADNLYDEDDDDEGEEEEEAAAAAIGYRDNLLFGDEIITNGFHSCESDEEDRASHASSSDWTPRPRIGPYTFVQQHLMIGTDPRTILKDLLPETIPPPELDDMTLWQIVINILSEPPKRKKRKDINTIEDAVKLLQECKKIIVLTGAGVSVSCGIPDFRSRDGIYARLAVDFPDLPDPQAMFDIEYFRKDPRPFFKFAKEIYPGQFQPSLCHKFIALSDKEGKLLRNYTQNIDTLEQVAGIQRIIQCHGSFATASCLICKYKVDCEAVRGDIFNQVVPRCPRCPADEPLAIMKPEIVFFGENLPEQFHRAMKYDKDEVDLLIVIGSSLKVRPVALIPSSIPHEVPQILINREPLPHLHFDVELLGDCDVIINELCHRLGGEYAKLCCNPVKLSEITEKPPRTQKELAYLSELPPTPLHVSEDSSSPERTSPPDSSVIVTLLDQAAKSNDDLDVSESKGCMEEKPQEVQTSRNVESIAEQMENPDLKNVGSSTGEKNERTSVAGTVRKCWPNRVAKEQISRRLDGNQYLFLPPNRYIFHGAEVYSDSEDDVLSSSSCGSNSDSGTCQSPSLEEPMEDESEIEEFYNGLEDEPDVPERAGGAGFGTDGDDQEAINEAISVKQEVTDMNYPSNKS
Assay: Trp mass spectrometry assay of SIRT1 activity
Type: biochemical
Conditions: Trp assay; for Trp EC1.5 (μM): concentration giving 150% activation of SIRT1; for Emax: percent maximum fold activation, read-out: Trp % Fold Act
In short: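 His-tagged SIRT1 expressed in E. coli BL21(DE3), 10 nM, incubated 25 min at 25° C. with 0.5 μM Ac-RHKK(Ac)W-NH2 peptide and 120 μM βNAD+ in 50 mM HEPES pH 7.5, […], 1 mM DTT, 0.05% BSA; formic acid stop. OAADPR or deacetylated peptide measured by mass spectrometry; EC1.5 and percent maximum activation versus DMSO control.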

Structure (SMILES) | Trp EC1.5 (μM) | Emax [%]
O=C(Nc1cnccn1)c1cnc2ccc(N3CC(F)(F)C3)nn12 [Compound 926] | C (EC1.5>25 μM) | < 350
O=C(Nc1cccnc1)c1cnc2ccc(N3CCC(F)(F)CC3)nn12 [Compound 928] | B (EC1.5 1-25 μM) | < 350
O=C(Nc1cncc(F)c1)c1cnc2ccc(N3CCC(F)(F)CC3)nn12 [Compound 929] | B (EC1.5 1-25 μM) | ≥ 350
O=C(Nc1cccnn1)c1cnc2ccc(N3CCC(F)(F)CC3)nn12 [Compound 930] | B (EC1.5 1-25 μM) | ≥ 350
CO[C@H]1CCN(c2ccc3ncc(C(=O)Nc4ccncc4F)n3n2)C1 [Compound 936] | B (EC1.5 1-25 μM) | < 350
O=C(Nc1cccnc1)c1cnn2ccc(N3CCCCC3C(F)(F)F)nc12 (stereo not drawn) [Compound 945, N-(pyridin-3-yl)-5-(2-(trifluoromethyl)piperidin-1-yl)pyrazolo[1,5-a]pyrimidine-3-carboxamide] | A (EC1.5<1 μM) | ≥ 350
CN1CCN(c2ccc3ncc(C(=O)Nc4cccnc4)n3n2)CC1 [Compound 946] | C (EC1.5>25 μM) | < 350
CN1CCN(c2ccc3ncc(C(=O)Nc4ccc(F)cn4)n3n2)CC1 [Compound 947] | – | < 350
CN1CCN(c2ccc3ncc(C(=O)Nc4ccncc4F)n3n2)CC1 [Compound 949] | – | < 350
CN1CCN(c2ccc3ncc(C(=O)Nc4cccnn4)n3n2)CC1 [Compound 950] | – | < 350
CN1CCN(c2ccc3ncc(C(=O)Nc4cncc(F)c4)n3n2)CC1 [Compound 951] | – | < 350
CC1(C)CCN(c2ccc3ncc(C(=O)Nc4cccnc4)n3n2)C1 [Compound 953] | – | ≥ 350
CC1(C)CCN(c2ccc3ncc(C(=O)Nc4ccc(F)cn4)n3n2)C1 [Compound 954] | – | < 350
CC1(C)CCN(c2ccc3ncc(C(=O)Nc4cccnn4)n3n2)C1 [Compound 955] | – | ≥ 350
CC1(C)CCN(c2ccc3ncc(C(=O)Nc4cncc(F)c4)n3n2)C1 [Compound 956] | – | < 350
O=C(Nc1ccccn1)c1cnn2ccc(N3CCCCC3C(F)(F)F)nc12 (stereo not drawn) [Compound 957] | – | ≥ 350
O=C(Nc1cncc(F)c1)c1cnc2ccc(N3CCC(C(F)(F)F)C3)nn12 (stereo not drawn) [Compound 959] | – | ≥ 350
CC1(C)CCN(c2ccc3ncc(C(=O)Nc4ccncc4F)n3n2)C1 [Compound 960] | – | < 350
O=C(Nc1ccc(F)cn1)c1cnc2ccc(N3CCC(F)(F)CC3)nn12 [Compound 962] | – | < 350
O=C(Nc1ccncc1F)c1cnc2ccc(N3CCC(F)(F)CC3)nn12 [Compound 963] | – | < 350
Cc1nc(NC(=O)c2cnn3ccc(N4CCCCC4C(F)(F)F)nc23)sc1C (stereo not drawn) [Compound 965] | – | ≥ 350
O=C(Nc1cccnc1)c1cnc2ccc(N3CCCC3C(F)(F)F)nn12 (stereo not drawn) [Compound 966, N-(pyridin-3-yl)-6-(2-(trifluoromethyl)pyrrolidin-1-yl)imidazo[1,2-b]pyridazine-3-carboxamide] | A (EC1.5<1 μM) | ≥ 350
O=C(Nc1cncc(F)c1)c1cnc2ccc(N3CCCC3C(F)(F)F)nn12 (stereo not drawn) [Compound 967] | – | ≥ 350
Cc1nc(NC(=O)c2cnc3ccc(N4CCCC4C(F)(F)F)nn23)sc1C (stereo not drawn) [Compound 969] | – | ≥ 350
CC1CCN(c2ccc3ncc(C(=O)Nc4cncc(F)c4)n3n2)C1 (stereo not drawn) [Compound 979] | – | ≥ 350
Cc1nc2ccc(N3CCC(F)(F)C3)nn2c1C(=O)Nc1cccnc1 [Compound 980, 6-(3,3-difluoropyrrolidin-1-yl)-2-methyl-N-(pyridin-3-yl)imidazo[1,2-b]pyridazine-3-carboxamide] | – | ≥ 350
O=C(Nc1cncc(F)c1)c1cnc2ccc(N3CC[C@H](O)C3)nn12 [Compound 985] | – | < 350
Cc1nc2ccc(N3CCC(F)(F)C3)nn2c1C(=O)Nc1cncc(F)c1 [Compound 991] | – | < 350
Cc1nc2ccc(N3CCCC(F)(F)C3)nn2c1C(=O)Nc1cccnn1 [Compound 994] | – | ≥ 350
C[C@@H]1CN(c2ccc3ncc(C(=O)Nc4cccnc4)n3n2)C[C@H](C)O1 [Compound 995] | – | ≥ 350

Further lines, results first:

Trp EC1.5 (μM) | Emax [%] | Structure (SMILES)
C (EC1.5>25 μM) | < 350 | COc1cc(NC(=O)c2cnc3ccc(N4CC[C@H](F)C4)nn23)ncn1 [Compound 922]
A (EC1.5<1 μM) | ≥ 350 | CN(C)c1ccnc(NC(=O)c2cnc3ccc(N4CC[C@H](F)C4)nn23)n1 [Compound 923]
B (EC1.5 1-25 μM) | < 350 | CN(C)c1cnnc(NC(=O)c2cnc3ccc(N4CC[C@H](F)C4)nn23)c1 [Compound 924]
B (EC1.5 1-25 μM) | ≥ 350 | O=C(Nc1ccccn1)c1cnc2ccc(N3CCC(F)(F)CC3)nn12 [Compound 927]
A (EC1.5<1 μM) | ≥ 350 | O=C(Nc1ccncc1F)c1cnc2ccc(N3CCCC(C(F)(F)F)C3)nn12 (stereo not drawn) [Compound 931]
A (EC1.5<1 μM) | ≥ 350 | O=C(Nc1cccnc1)c1cnc2ccc(N3CCCC(C(F)(F)F)C3)nn12 (stereo not drawn) [Compound 932]
B (EC1.5 1-25 μM) | < 350 | CO[C@H]1CCN(c2ccc3ncc(C(=O)Nc4ccccn4)n3n2)C1 [Compound 933]
B (EC1.5 1-25 μM) | < 350 | CO[C@H]1CCN(c2ccc3ncc(C(=O)Nc4cccnc4)n3n2)C1 [Compound 934]
B (EC1.5 1-25 μM) | < 350 | CO[C@H]1CCN(c2ccc3ncc(C(=O)Nc4ccc(F)cn4)n3n2)C1 [Compound 935]
– | < 350 | CN1CCN(c2ccc3ncc(C(=O)Nc4ccccn4)n3n2)CC1 [Compound 948]
– | ≥ 350 | CC1(C)CCN(c2ccc3ncc(C(=O)Nc4ccccn4)n3n2)C1 [Compound 952]
– | ≥ 350 | O=C(Nc1cccnc1)c1cnc2ccc(N3CCC(C(F)(F)F)C3)nn12 (stereo not drawn) [Compound 958]
– | < 350 | O=C(Nc1ccncn1)c1cnc2ccc(N3CCOCC3)nn12 [Compound 961]
– | < 350 | O=C(Nc1ccncn1)c1cnc2ccc(N3CCC(F)(F)CC3)nn12 [Compound 964]
– | ≥ 350 | O=C(Nc1cccnn1)c1cnc2ccc(N3CCCC3C(F)(F)F)nn12 (stereo not drawn) [Compound 968]
– | ≥ 350 | O=C(Nc1ccncn1)c1cnc2ccc(N3CCCC3C(F)(F)F)nn12 (stereo not drawn) [Compound 970, N-(pyrimidin-4-yl)-6-(2-(trifluoromethyl)pyrrolidin-1-yl)imidazo[1,2-b]pyridazine-3-carboxamide]
– | < 350 | CN1CCN(c2ccc3ncc(C(=O)Nc4ccncn4)n3n2)CC1 [Compound 971]

Trp EC1.5 (μM) | Emax [%] | Structure (SMILES)
– | < 350 | CC1(C)CCN(c2ccc3ncc(C(=O)Nc4ccncn4)n3n2)C1 [Compound 972]
– | < 350 | CO[C@H]1CCN(c2ccc3ncc(C(=O)Nc4ccncn4)n3n2)C1 [Compound 973, (S)-6-(3-methoxypyrrolidin-1-yl)-N-(pyrimidin-4-yl)imidazo[1,2-b]pyridazine-3-carboxamide]
– | ≥ 350 | O=C(Nc1ccccn1)c1cnc2ccc(N3CCCC3C(F)(F)F)nn12 (stereo not drawn) [Compound 974]
– | < 350 | CC1CCN(c2ccc3ncc(C(=O)Nc4ccccn4)n3n2)C1 (stereo not drawn) [Compound 975]
– | ≥ 350 | CC1CCN(c2ccc3ncc(C(=O)Nc4cccnc4)n3n2)C1 (stereo not drawn) [Compound 976]
– | < 350 | CC1CCN(c2ccc3ncc(C(=O)Nc4ccc(F)cn4)n3n2)C1 (stereo not drawn) [Compound 977]
– | ≥ 350 | CC1CCN(c2ccc3ncc(C(=O)Nc4cccnn4)n3n2)C1 (stereo not drawn) [Compound 978]
– | < 350 | O=C(Nc1ccccn1)c1cnc2ccc(N3CC[C@H](O)C3)nn12 [Compound 981]
– | < 350 | O=C(Nc1cccnc1)c1cnc2ccc(N3CC[C@H](O)C3)nn12 [Compound 982]
– | < 350 | O=C(Nc1ccc(F)cn1)c1cnc2ccc(N3CC[C@H](O)C3)nn12 [Compound 983]
– | < 350 | O=C(Nc1cccnn1)c1cnc2ccc(N3CC[C@H](O)C3)nn12 [Compound 984]
– | ≥ 350 | O=C(Nc1ccccn1)c1cnc2ccc(N3CCC[C@H](F)C3)nn12 [Compound 986]
– | ≥ 350 | O=C(Nc1cccnc1)c1cnc2ccc(N3CCC[C@H](F)C3)nn12 [Compound 987]
– | ≥ 350 | O=C(Nc1ccc(F)cn1)c1cnc2ccc(N3CCC[C@H](F)C3)nn12 [Compound 988]
– | ≥ 350 | O=C(Nc1cccnn1)c1cnc2ccc(N3CCC[C@H](F)C3)nn12 [Compound 989]
– | < 350 | CC1CCN(c2ccc3ncc(C(=O)Nc4ccncn4)n3n2)C1 (stereo not drawn) [Compound 992]
– | ≥ 350 | O=C(Nc1ccncn1)c1cnc2ccc(N3CCC[C@H](F)C3)nn12 [Compound 993]
